Measurements: US7759331B2, “Pyridine-containing macroheterococylic compounds as kinase inhibitors” (Janssen Pharmaceutica NV, priority 2006, dated 2010)

How the values were obtained:
Assay in all cases: Protein kinase selectivity panel
Assay type in all cases: biochemical
Details in all cases: 1.0 μM compound, 10 μM ATP
[1] = target: CDK6/cyclinD3(h) (Homo sapiens, UniProt Q00534)
Experimental: (§1) Protein kinase selectivity assays were performed as described in the scientific literature (Davies, S. P., et al., Biochem. J. 2000, 351, 95-105). Briefly, protein kinases were assayed for their ability to phosphorylate the appropriate peptide/protein substrates in the presence of 1.0 μM compound. Assays were done using 10 μM ATP and were linear with respect to time. The protein kinase selectivity assays were performed by Upstate Cell Signaling Solutions using Upstate's KinaseProfiler™ Selectivity Screening Service.

[2] = target: PKA(h) (Homo sapiens, UniProt P17612)
Experimental: as §1

[3] = target: Abl(h) (Homo sapiens, UniProt P00519)
Experimental: as §1

[4] = target: Rsk1(h) (Homo sapiens, UniProt Q15418)
Experimental: as §1

[5] = target: EGFR(h) (Homo sapiens, UniProt P00533)
Experimental: as §1

[6] = target: PAK2(h) (Homo sapiens, UniProt Q13177)
Experimental: as §1

[7] = target: PKCα(h) (Homo sapiens, UniProt P17252)
Experimental: as §1

[8] = target: Abl(T315l)(h) (Homo sapiens, UniProt P00519, T315I)
Experimental: as §1

[9] = target: PKCθ(h) (Homo sapiens, UniProt Q04759)
Experimental: as §1

[10] = target: JNK2α2(h) (Homo sapiens, UniProt P45984)
Experimental: as §1

[11] = target: cSRC(h) (Homo sapiens, UniProt P12931)
Experimental: as §1

[12] = target: PKCδ(h) (Homo sapiens, UniProt Q05655)
Experimental: as §1

[13] = target: T1, NEK2(h) (Homo sapiens, UniProt P51955)
T1 sequence (P51955 1-445): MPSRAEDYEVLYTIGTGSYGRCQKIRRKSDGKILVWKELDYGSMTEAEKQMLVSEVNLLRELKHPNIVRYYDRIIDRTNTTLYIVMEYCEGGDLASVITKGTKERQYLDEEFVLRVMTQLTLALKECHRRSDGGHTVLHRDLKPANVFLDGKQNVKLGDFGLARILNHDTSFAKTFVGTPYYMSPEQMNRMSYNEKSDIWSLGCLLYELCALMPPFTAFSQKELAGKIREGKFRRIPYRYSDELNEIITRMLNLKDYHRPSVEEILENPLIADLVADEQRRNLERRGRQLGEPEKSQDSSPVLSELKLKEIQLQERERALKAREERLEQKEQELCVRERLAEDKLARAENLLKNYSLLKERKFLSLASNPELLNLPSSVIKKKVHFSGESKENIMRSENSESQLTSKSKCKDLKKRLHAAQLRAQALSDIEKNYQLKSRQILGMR
Experimental: as §1

[14] = target: T2, EphB4(h) (Homo sapiens, UniProt P54760)
T2 sequence (P54760 16-987): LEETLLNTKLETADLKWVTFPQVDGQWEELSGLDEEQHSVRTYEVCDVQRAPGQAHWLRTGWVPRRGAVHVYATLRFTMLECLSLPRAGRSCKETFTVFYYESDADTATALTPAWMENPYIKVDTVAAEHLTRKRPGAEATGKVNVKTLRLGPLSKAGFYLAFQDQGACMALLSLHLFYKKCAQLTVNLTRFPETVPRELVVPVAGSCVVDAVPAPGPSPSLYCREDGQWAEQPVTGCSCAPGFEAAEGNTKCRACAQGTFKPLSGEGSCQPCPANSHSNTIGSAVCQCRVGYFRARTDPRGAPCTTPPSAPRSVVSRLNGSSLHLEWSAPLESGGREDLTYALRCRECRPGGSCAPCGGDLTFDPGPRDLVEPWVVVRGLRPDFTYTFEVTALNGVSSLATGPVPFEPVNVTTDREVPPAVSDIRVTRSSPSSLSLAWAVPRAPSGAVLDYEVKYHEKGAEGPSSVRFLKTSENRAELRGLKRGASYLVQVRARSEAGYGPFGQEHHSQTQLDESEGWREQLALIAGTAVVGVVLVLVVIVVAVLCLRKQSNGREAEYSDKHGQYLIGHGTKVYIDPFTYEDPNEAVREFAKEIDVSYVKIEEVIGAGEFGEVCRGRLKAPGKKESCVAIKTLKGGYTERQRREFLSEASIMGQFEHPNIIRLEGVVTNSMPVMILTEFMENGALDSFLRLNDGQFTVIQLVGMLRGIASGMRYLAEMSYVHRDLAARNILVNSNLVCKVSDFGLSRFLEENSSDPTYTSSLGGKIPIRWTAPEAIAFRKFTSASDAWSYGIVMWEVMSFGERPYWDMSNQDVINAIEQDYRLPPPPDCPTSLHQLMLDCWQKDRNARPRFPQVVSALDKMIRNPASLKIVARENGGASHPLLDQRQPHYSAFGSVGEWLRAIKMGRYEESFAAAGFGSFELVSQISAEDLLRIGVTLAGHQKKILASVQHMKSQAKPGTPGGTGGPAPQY
Experimental: as §1

[15] = target: T3, Aurora-A(h) (Homo sapiens, UniProt O14965)
T3 sequence (O14965 1-403): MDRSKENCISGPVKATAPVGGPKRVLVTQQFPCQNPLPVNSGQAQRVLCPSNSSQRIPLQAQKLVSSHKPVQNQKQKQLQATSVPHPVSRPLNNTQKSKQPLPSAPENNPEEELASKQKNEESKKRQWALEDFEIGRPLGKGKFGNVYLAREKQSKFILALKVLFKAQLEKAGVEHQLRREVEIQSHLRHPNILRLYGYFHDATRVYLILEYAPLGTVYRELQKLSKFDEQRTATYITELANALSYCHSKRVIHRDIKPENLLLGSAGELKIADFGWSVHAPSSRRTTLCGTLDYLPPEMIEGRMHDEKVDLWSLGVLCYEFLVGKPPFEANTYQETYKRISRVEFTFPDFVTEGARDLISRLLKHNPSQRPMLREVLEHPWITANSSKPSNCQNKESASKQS
Experimental: as §1

[16] = target: FGFR3(h) (Homo sapiens, UniProt P22607)
Experimental: as §1

Chain of cSRC(h) (P12931 whole entry): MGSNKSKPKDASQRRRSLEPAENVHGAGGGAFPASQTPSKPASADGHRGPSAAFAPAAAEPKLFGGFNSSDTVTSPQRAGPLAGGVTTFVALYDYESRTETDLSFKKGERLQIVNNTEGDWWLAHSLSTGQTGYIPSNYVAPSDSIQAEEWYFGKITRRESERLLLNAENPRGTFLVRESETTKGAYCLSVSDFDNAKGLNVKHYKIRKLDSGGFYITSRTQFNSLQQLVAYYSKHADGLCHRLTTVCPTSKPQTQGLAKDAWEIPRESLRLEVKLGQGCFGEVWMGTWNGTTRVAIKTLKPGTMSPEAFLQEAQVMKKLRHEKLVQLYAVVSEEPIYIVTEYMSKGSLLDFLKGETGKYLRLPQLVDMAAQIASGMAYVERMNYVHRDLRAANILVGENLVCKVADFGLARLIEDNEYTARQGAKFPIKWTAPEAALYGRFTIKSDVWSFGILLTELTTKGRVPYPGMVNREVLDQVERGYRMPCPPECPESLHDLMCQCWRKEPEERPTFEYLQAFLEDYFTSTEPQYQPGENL
Chain of PKCθ(h) (Q04759 whole entry): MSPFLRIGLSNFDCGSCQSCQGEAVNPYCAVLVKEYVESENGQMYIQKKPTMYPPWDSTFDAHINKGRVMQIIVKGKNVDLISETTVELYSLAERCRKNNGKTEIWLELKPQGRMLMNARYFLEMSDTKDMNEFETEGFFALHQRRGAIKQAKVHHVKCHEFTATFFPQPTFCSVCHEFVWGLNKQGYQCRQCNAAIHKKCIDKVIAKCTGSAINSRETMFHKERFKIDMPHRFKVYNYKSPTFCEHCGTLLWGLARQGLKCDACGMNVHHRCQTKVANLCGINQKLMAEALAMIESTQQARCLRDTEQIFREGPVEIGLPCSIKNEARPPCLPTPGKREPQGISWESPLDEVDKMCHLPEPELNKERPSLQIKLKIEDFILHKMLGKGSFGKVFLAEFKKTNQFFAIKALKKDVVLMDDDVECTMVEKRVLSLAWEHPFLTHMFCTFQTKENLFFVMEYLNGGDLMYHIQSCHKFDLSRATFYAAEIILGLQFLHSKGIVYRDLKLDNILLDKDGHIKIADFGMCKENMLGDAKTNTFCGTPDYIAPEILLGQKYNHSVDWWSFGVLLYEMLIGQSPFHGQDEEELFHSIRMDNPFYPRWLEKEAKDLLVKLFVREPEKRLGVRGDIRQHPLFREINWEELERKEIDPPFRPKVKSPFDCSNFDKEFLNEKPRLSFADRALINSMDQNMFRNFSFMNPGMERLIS
Chain of EGFR(h) (P00533 25-1210): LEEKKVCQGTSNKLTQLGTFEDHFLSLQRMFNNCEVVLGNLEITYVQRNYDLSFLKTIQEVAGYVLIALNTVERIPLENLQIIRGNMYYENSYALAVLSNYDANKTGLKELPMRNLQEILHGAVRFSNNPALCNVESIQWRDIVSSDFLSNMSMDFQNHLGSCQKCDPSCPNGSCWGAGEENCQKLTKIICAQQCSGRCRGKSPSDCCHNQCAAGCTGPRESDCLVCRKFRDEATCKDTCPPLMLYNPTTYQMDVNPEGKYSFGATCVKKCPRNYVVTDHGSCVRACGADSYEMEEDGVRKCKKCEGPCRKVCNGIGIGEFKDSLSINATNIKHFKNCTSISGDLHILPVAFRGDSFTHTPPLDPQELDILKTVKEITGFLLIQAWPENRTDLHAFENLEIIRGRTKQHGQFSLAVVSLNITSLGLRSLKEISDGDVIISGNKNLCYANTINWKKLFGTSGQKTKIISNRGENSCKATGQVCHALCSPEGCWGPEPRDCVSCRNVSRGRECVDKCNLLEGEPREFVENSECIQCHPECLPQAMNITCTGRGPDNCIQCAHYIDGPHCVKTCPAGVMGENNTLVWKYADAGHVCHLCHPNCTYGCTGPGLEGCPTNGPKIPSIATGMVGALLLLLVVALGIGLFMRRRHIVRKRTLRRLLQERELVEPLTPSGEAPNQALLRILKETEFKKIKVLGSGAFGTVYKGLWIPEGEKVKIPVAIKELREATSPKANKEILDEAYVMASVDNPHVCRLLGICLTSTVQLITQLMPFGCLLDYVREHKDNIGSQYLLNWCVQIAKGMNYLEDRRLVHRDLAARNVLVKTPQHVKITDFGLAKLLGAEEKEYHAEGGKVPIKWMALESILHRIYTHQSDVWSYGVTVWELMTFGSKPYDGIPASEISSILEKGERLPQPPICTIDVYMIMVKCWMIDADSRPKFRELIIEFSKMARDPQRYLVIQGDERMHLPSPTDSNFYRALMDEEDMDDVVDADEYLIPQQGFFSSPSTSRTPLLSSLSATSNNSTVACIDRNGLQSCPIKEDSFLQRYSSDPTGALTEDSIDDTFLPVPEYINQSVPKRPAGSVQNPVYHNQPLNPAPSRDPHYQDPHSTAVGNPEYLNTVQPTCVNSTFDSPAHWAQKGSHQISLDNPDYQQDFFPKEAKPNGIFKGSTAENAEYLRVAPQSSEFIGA
Chain of FGFR3(h) (P22607 23-806): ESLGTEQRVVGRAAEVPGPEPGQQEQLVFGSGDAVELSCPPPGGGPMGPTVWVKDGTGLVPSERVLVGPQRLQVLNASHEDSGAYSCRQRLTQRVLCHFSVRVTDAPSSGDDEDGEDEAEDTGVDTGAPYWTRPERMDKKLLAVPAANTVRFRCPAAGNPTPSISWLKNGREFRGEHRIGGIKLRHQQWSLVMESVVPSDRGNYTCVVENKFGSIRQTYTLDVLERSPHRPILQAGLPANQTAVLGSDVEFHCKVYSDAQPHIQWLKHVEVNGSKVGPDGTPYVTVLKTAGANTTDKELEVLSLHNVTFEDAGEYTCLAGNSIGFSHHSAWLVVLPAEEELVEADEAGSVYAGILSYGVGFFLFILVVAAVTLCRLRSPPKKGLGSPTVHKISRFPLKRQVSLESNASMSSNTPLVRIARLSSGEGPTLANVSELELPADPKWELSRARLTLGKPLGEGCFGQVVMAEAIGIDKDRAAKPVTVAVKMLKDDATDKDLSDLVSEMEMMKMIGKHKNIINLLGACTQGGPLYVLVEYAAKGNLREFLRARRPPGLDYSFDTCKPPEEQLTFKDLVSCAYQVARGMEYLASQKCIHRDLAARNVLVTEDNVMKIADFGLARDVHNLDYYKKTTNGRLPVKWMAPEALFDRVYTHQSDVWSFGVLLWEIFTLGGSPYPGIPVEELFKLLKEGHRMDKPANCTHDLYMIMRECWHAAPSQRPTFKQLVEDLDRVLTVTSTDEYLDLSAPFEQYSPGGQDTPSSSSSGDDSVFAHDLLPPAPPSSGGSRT
Chain of JNK2α2(h) (P45984 whole entry): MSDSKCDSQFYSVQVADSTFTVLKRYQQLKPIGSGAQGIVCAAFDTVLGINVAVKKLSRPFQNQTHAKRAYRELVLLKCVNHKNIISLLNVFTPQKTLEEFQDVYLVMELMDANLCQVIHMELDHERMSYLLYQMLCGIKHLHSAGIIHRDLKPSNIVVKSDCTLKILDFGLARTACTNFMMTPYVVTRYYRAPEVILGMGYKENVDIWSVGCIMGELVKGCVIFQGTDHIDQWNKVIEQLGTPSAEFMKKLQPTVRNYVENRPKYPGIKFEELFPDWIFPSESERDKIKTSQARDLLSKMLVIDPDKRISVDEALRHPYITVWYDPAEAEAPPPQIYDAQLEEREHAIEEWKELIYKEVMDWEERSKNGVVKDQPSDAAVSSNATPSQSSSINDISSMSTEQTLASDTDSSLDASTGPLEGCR
Chain of Rsk1(h) (Q15418 whole entry): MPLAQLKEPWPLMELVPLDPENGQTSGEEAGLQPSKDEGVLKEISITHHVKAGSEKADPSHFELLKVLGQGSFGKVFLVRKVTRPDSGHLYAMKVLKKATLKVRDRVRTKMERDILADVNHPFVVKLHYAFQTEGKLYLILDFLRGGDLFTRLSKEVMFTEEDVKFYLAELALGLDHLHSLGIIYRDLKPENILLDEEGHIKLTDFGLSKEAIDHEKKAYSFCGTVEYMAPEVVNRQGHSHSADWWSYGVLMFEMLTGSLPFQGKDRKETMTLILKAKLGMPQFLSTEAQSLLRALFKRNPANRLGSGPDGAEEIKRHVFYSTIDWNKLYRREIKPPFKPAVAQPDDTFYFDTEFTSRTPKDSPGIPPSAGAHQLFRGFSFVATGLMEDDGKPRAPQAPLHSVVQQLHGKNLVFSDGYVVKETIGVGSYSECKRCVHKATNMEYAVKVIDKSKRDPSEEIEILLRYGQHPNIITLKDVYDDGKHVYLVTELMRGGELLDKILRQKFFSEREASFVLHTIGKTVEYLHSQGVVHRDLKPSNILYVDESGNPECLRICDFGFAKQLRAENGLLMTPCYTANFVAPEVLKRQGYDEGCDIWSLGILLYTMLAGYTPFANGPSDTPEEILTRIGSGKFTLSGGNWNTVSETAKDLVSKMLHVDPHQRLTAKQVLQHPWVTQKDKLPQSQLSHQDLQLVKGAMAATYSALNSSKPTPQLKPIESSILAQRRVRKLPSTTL

Row | Activity at Protein Kinase Assays (% of control), CDK6/cyclinD3(h) [1] | Activity at Protein Kinase Assays (% of control), PKA(h) [2] | Activity at Protein Kinase Assays (% of control), Abl(h) [3] | Activity at Protein Kinase Assays (% of control), Rsk1(h) [4] | Activity at Protein Kinase Assays (% of control), EGFR(h) [5] | Activity at Protein Kinase Assays (% of control), PAK2(h) [6] | Activity at Protein Kinase Assays (% of control), PKCα(h) [7] | Activity at Protein Kinase Assays (% of control), Abl(T315l)(h) [8] | Activity at Protein Kinase Assays (% of control), PKCθ(h) [9] | Activity at Protein Kinase Assays (% of control), JNK2α2(h) [10] | Activity at Protein Kinase Assays (% of control), cSRC(h) [11] | Activity at Protein Kinase Assays (% of control), PKCδ(h) [12] | Activity at Protein Kinase Assays (% of control), NEK2(h) [13] | Activity at Protein Kinase Assays (% of control), EphB4(h) [14] | Activity at Protein Kinase Assays (% of control), Aurora-A(h) [15] | Activity at Protein Kinase Assays (% of control), FGFR3(h) [16] | SMILES
1 | 86 % of control | 90 % of control | 105 % of control | 39 % of control | 94 % of control | 93 % of control | 68 % of control | 100 % of control | 21 % of control | 96 % of control | 81 % of control | 73 % of control | 104 % of control | 89 % of control | 109 % of control | 75 % of control | CN(C)c1nc2ccc1CCCCn1cc(c3ccccc31)C1=C(C(=O)NC1=O)c1cn(c3ccccc13)CCC2 [Cpd 1, 31-(dimethylamino)-5,15,25,32-tetraazaheptacyclo[28.2.2.1^5,12.1^18,25.0^6,11.0^13,17.0^19,24]hexatriaconta-1(32),6,8,10,12(36),13(17),18(35),19,21,23,30,33-dodecaene-14,16-dione]
2 | 74 % of control | 95 % of control | 98 % of control | 15 % of control | 96 % of control | 103 % of control | 74 % of control | 79 % of control | 27 % of control | 106 % of control | 105 % of control | 100 % of control | 102 % of control | 103 % of control | 111 % of control | 84 % of control | CN(C)c1cc2cc(n1)CCCn1cc(c3ccccc31)C1=C(C(=O)NC1=O)c1cn(c3ccccc13)CCC2 [Cpd 2, 20-(dimethylamino)-4,14,19,26-tetraazaheptacyclo[24.6.1.1^7,14.1^18,22.0^2,6.0^8,13.0^27,32]pentatriaconta-1(33),2(6),7(35),8,10,12,18(34),19,21,27,29,31-dodecaene-3,5-dione]
3 | 82 % of control | 104 % of control | 107 % of control | 15 % of control | 108 % of control | 100 % of control | 82 % of control | 77 % of control | 29 % of control | 114 % of control | 97 % of control | 104 % of control | 105 % of control | 109 % of control | 111 % of control | 114 % of control | O=C1NC(=O)C2=C1c1cn(c3ccccc13)CCCc1cc(nc(N3CCCC3)c1)CCCn1cc2c2ccccc21 [Cpd 6, 20-pyrrolidin-1-yl-4,14,19,26-tetraazaheptacyclo[24.6.1.1^7,14.1^18,22.0^2,6.0^8,13.0^27,32]pentatriaconta-1(33),2(6),7(35),8,10,12,18(34),19,21,27,29,31-dodecaene-3,5-dione]
4 | 92 % of control | 102 % of control | 108 % of control | 85 % of control | 104 % of control | 102 % of control | 83 % of control | 103 % of control | 33 % of control | 110 % of control | 113 % of control | 91 % of control | 99 % of control | 100 % of control | 106 % of control | 117 % of control | O=C1NC(=O)C2=C1c1cn(c3ccccc13)CCCc1ccc(c(N3CCCC3)n1)CCCn1cc2c2ccccc21 [Cpd 7, 31-pyrrolidin-1-yl-5,15,25,30-tetraazaheptacyclo[27.2.2.1^5,12.1^18,25.0^6,11.0^13,17.0^19,24]pentatriaconta-1(31),6,8,10,12(35),13(17),18(34),19,21,23,29,32-dodecaene-14,16-dione]
